Data reported in patent US20220281930A1, “COMPOSITIONS AND METHODS FOR THE TREATMENT OF PATHOLOGICAL PAIN AND ITCH” (DUKE UNIVERSITY, priority 2019, published 2022).

Columns and labels:
[1] = test system: intracellular chloride ([Cl—]i); assay: Secondary screen: Clomeleon chloride imaging in primary mouse neurons; format: cell-based; parameters: chloride reduction (%): concentration or dose not given beside the values
Protocol: The primary screen encompassed three levels of LUC measurements. The first level of screening yielded a total of 137 compounds with cut-off RLU>125% LUC activity. These 137 compounds were subject to second round of screening, which was carried out in duplicate independent assays to yield the top 103 compounds sorted for highest RLU. The 103 compounds were then subjected to a third round of screening carried out in duplicate independent assays to yield the top 40 compounds which were again ranked. The best 22 of these 40 compounds (ranked for highest RLU activity) were subjected to secondary screening: Cultured neurons were treated with the 22 compounds; RT-qPCR and Clomeleon imaging methodologies (Yeo et al., 2009, J Neurosci 29:14652-14662) were used to determine effects of compounds on KCC2 mRNA expression and [Cl—]i, respectively. Each compound was ranked based on composite scores from primary and secondary screening.
Chloride imaging of primary cultured cortical neurons was conducted as previously described (Kuner and Augustine, 2000, Neuron 27:447-459; Liedtke et al., 2013, Small 9:1066-1075; Yeo et al., 2009, J Neurosci 29:14652-14662). A Clomeleon expression plasmid was transfected into primary cortical neurons by electroporation (Amaxa Nucleofector Device). Transfected neurons were verified by yellow fluorescent protein (YFP) fluorescence, and ratiometric images (excitation at λ=434 nm, dual emission at λ=485 and 535 nm; for resting chloride, six stable frames at […] were captured, which were averaged) were acquired using RATIOTOOL program. Calibration of Clomeleon signals (535 nm/485 nm emission ratio) was performed by using tributyltin-nigericin to establish a standard curve, which was then normalized for measured intraneuronal pH to take into account the pH sensitivity of Clomeleon.
To identify KCC2 gene expression enhancing compounds, cultured primary cortical neurons were cultured from KCC2-luciferase(LUC)-knockin (KCC2-LUCki) mice (Liedtke et al., 2013, Small 9:1066-1075; Yeo et al., 2013, Proc Natl Acad Sci USA 110:4315-4320) and used LUC metrics as readout for activity of the proximal KCC2 promoter (2.5 kB (Yeo et al., 2009, J Neurosci 29:14652-14662)), which drives LUC in this mouse transgenic line. A Z′ factor of 0.94 was obtained. This strategy will not select for long-range enhancers of KCC2 gene expression that act outside the 2.5 kB core KCC2 promoter. 1057 compounds, contained in two NCI libraries (FIG. 1), related to inhibition of growth of malignantly transformed cells were screened. Iterative screening followed by measurements of KCC2 mRNA (RT-qPCR) and intracellular chloride ([Cl—]i), using clomeleon chloride indicator protein (Kuner and Augustine, 2000, Neuron 27:447-459; Yeo et al., 2009, J Neurosci 29:14652-14662), led to decreasing numbers of confirmed and re-confirmed hits, and 4 “winner” compounds were selected (FIG. 1 and Table 3).

[2] = test system: motor function and coordination of mice; assay: Rotarod assay; format: in vivo, mouse; conditions: 10, 30 mg/kg i.p.; one-time exception high-dose day 7
Protocol: For assessment in rotarod (RR), all animals received training prior to experiments; mice were placed on the RR apparatus set in an accelerating rotational speed mode (3-30 rpm, 300 s max) per trial. Following training, the average time to fall from the rotating cylinder over three trials was recorded as baseline latency (4-40 rpm, 300 s max/trial). Mice were injected daily with either vehicle or drug compounds before RR tests. Latency to fall was measured (4-40 rpm, 300 s max/trial (inter-trial interval is at least 15 min). The average latency to fall from the rod was recorded for each animal.
With these beneficial effects of KP on pathologic pain and itch, whether KP had undesirable effects on the CNS in terms of sedation, impairment of motor stamina, balance and coordination was assessed. […] Conditioned place preference was used to test whether KP (30 mg/kg; i.p.) can trigger brain reward mechanisms (Jackson et al., 2019, Psychopharmacology, 236(12):3593-3599; Sora et al., 1998, Proc Natl Acad Sci USA 95:7699-7704), and there were no such effects (FIG. 4F). […] In pathologic pain models, KP acts centrally to mediate analgesic effects, and thus relies on KCC2 chloride extrusion.

[3] = test system: delta-cat binding to KCC2 promoter; assay: ChIP with anti-delta-cat antibody at KCC2 promoter; format: cell-based, rat; conditions: KP-treatment vs vehicle
Protocol: ChIP assay was carried out as described previously (Yeo et al., 2009, J Neurosci 29:14652-14662; Yeo et al., 2013, Proc Natl Acad Sci USA 110:4315-4320). Primary cortical neurons (0.7×10^6) were used for each ChIP experiment. Cells were crosslinked with 1% formaldehyde for 30 min, washed twice with cold PBS, resuspended in lysis buffer [1% SDS, 10 mm EDTA, and 50 mm Tris-HCl, pH 8.0, with protease inhibitor cocktail (Roche)], and sonicated for 15 s pulses. The lysates were clarified by centrifugation at 10,000 rpm for 10 min at 4° C. in a microcentrifuge. One-tenth of the total lysate was used as input control of genomic DNA. Supernatants were collected and diluted in buffer (1% Triton X-100, 2 mm EDTA, 150 mm NaCl, 20 mm Tris-HCl, pH 8.0, and protease inhibitor cocktail) followed by immunoclearing with 1 mg of salmon sperm DNA, 10 ml of rabbit IgG, and 20 ml of protein A/G-Sepharose (Santa Cruz Biotechnology) for 1 h at 4° C. Immunoprecipitation was performed overnight at 4° C. with 2 mg of each specific antibody. Precipitates were washed sequentially for 10 min each in TSE1 buffer (0.1% SDS, 1% Triton X-100, 2 mm EDTA, 150 mm NaCl, and 20 mm Tris-HCl, pH 8.0), TSE2 (TSE1 with 500 mm NaCl), and TSE3 (0.25 m LiCl, 1% NP-40, 1% deoxycholate, 1 mm EDTA, and 10 mm Tris-HCl, pH 8.0). Precipitates were then washed twice with 10 mm Tris/0.1 mm EDTA, pH 7.8 and extracted with 1% SDS containing 0.1 m NaHCO3. Eluates were pooled and heated at 65° C. for 4 h to reverse formaldehyde crosslinking. DNA fragments were purified with Qiagen Qiaquick spin kit. For ChIP PCR, 1 l of a 25 l DNA extraction was used.
Consequently, catenins effects on the KCC2 promoter was explored.

O=C1Cc2c([nH]c3ccc(Br)cc23)-c2ccccc2N1 [kenpaullone, 9-bromo-7,12-dihydro-indolo [3,2-d] [1]benzazepin-6(5H)-one]
Clomeleon Score (duplicates) ([1]; Natural Compounds, rank score): 2
chloride reduction (%) ([1]; from the [Cl—]i pair of the same line): 33.8%
chloride [Cl—]i mM ([1]; value after compound, control => treated): 68 => 23 mM
elapsed time on the rotarod [2]: does not affect motor stamina and coordination
binding of delta-cat to Kaiso1 site [3]: significantly reduced binding
binding of delta-cat to Kaiso2 site [3]: significantly increases binding
binding of delta-cat to TCF site [3]: non-significant increase
